The source of these data is paper PMC8760490, “Discovery of novel furanylbenzamide inhibitors that target oncogenic tyrosine phosphatase SHP2 in leukemia cells” (The Journal of Biological Chemistry, 2021).

In one assay the test system is MOLM-13 AML cells. The experiment in a line: Cell viability (CellTiter-Glo), MOLM-13. Format: cell-based. The settings on record: Homo sapiens. The procedure:
Inhibition of SHP2 has been reported to inhibit the growth of cancer cells including Kasumi-1 acute myeloid leukemia (AML) and KYSE-520 esophageal cancer cells ([30]). […] Thus, we treated two TNBC cell lines, BT-549 and MDA-MB-468, with SBI-4668 or the SHP2 allosteric inhibitor SHP099 at various concentrations and determined cell viability after 72 h, compared with the vehicle control (Fig. 4C). […] Next, we performed an 11-day colony formation assay with TNBC cells treated with SBI-4668 or SHP099 at 5, 10, or 20 μM (Fig. 4D).
(§1) Finally, we evaluated the selectivity of our top two compounds, SBI-2130 and SBI-4668, on MOLM-13 AML cells in which SHP2 was depleted using CRISPR–Cas9 KO. High-efficiency Cas9-editing MOLM-13 cells were generated by transducing MOLM-13 cells with a Cas9 lentiviral construct. Stable clones were tested for editing efficiency by performing tracking of indels by decomposition analysis ([45]), and these MOLM-13-Cas9 cells were transduced with a lentiviral construct containing an AAVS1 single-guide RNA (sgRNA) and an mCherry reporter for bulk sorting of cells with successful AAVS1 editing. SHP2 KO was achieved by transducing MOLM-13-Cas9-mCherry cells with a lentivirus, containing SHP2 dual sgRNAs, resulting in ∼80% reduction of SHP2 protein levels (Fig. 4G). SBI-2130, SBI-4668, and the SHP2 allosteric inhibitor, SHP099, were tested in parallel on regular MOLM-13 cells (expressing WT SHP2) and MOLM-13-Cas9-mCherry cells with SHP2 KO. Cells were treated with inhibitors at various concentrations (ranging from 30 μM to 58 nM) or vehicle control (DMSO) for 72 h, before cell viability was assessed.
Viability of AML and esophageal carcinoma cells was assessed using the ATP-depletion assay CellTiter-Glo (Promega). Cells were harvested at 1 × 10^6/ml to 2 × 10^6 cells/ml with cell numbers determined by trypan blue using the Countess Cell counter (Thermo Scientific) and resuspended in culture media. About 3000 cells (in 20 μl) were seeded in a 384-well format white and clear-bottom microplate (catalog no.: 781098; Greiner) spotted with test compound or vehicle control (DMSO) using an Echo 555 Liquid Handler. […] Luminescence was read on a Tecan Spark Multimode Microplate Reader, and data were analyzed using GraphPad Prism software.
For SHP2 KO, dual sgRNAs targeting SHP2 were cloned in the pLentiGuide puro vector (Addgene plasmid no. 52963 from Dr Feng Zhang) using a published protocol ([50]). […] SHP2 KO was evaluated by immunoblotting. […] For SHP2 KO, MOLM-13-Cas9-mCherry cells were seeded in nontreated 6-well plates (2 × 10^6 cells/well in 2.5 ml), with cell numbers determined by trypan blue using the Countess Cell Counter (Thermo Scientific). […]
For orientation: Cellular ATP, detected with luciferase, serves as a proxy for viable cell number.

The subject of assay [1] is MOLM-13-Cas9-mCherry cells with SHP2 KO. The experiment in a line: Cell viability, MOLM-13 SHP2 CRISPR–Cas9 KO. Type of assay: cell-based. The conditions noted are these: 72 h, 30 μM to 58 nM. The procedure: as §1, with “SHP2 KO was achieved by transducing MOLM-13-Cas9-mCherry cells with a lentivirus, containing SHP2 dual sgRNAs, resulting in ∼80% reduction of SHP2 protein levels (Fig. 4G). SBI-2130, SBI-4668, and the SHP2 allosteric inhibitor, SHP099, were tested in parallel on regular MOLM-13 cells (expressing WT SHP2) and MOLM-13-Cas9-mCherry cells with SHP2 KO.” left out, “assessed. […]” for “assessed.”
For SHP2 KO, dual sgRNAs targeting SHP2 were cloned in the pLentiGuide puro vector (Addgene plasmid no. 52963 from Dr Feng Zhang) using a published protocol ([50]). […] SHP2 KO was evaluated by immunoblotting. […] For SHP2 KO, MOLM-13-Cas9-mCherry cells were seeded in nontreated 6-well plates (2 × 10^6 cells/well in 2.5 ml), with cell numbers determined by trypan blue using the Countess Cell Counter (Thermo Scientific). […] Cell viability was assessed using the ATP-depletion assay CellTiter-Glo as described previously, and data were analyzed using GraphPad Prism software.

[2] abbreviates: 72 h, 30 μM to 58 nM, regular MOLM-13 expressing WT SHP2 (Fig. 4G), read-out: MOLM-13 cell viability IC50 (parallel to SHP2 KO).

Each structure is given as a SMILES string. Like-named read-outs stand apart in the source and are kept apart here.

As a reminder, the IC50 is the point on the concentration scale where inhibition reaches its midpoint. With `Nc1ccc(NC(=O)c2cc(-c3ccc(/C=C4\Sc5ccccc5C4=O)o3)ccc2O)cc1` [SBI-2130, (Z)-N-(4-Aminophenyl)-2-hydroxy-5-(5-((3-oxobenzo[b]thiophen-2(3H)-ylidene)methyl)furan-2-yl)benzamide], the half-inhibitory concentration (IC50) in the assay with MOLM-13 AML cells (setting [2]) stood at 7.6 µM. Also, in assay [1], the “effect on viability of MOLM-13-Cas9-mCherry SHP2 KO cells” value was “either completely abrogated or greatly reduced”.
In the case of `O=C(Nc1ccccc1)c1cc(-c2ccc(/C=C3\Sc4ccccc4C3=O)o2)ccc1O` [SBI-4668, (Z)-2-Hydroxy-5-(5-((3-oxobenzo[b]thiophen-2(3H)-ylidene)methyl)furan-2-yl)-N-phenylbenzamide], the IC50 with MOLM-13 AML cells (MOLM-13, 72 h, 3 days in culture (Fig. 4B), read-out: MOLM-13 cell viability IC50) is 12 µM; in the assay with MOLM-13 AML cells (setting [2]), 15 µM. Moreover, the “effect on viability of MOLM-13-Cas9-mCherry SHP2 KO cells” value in assay [1] is “either completely abrogated or greatly reduced”.
